# Test results from US20200093808A1, “Methods for the Administration of Certain VMAT2 Inhibitors” (Neurocrine Biosciences, Inc., priority 2017, published 2020).
# Entries after “also recorded” stand apart in the source; their conditions may differ.
# How the values were obtained:
# [1] = Phase 1 open-label drug interaction study: effect of ketoconazole on the pharmacokinetics of NBI-98854 in healthy subjects; format: in vivo, human; conditions: both sexes, human, plasma, oral
# Description: All subjects received the same treatment. […] Subjects were given meals upon completion of study assessments/dosing and at regular meal times during their stay in the research unit. […] Blood specimens to determine ketoconazole plasma concentrations were collected predose through Day 9. Safety and tolerability was assessed through Day 10. […] The tmax was analyzed using non-parametric methods. […] Safety data were summarized using descriptive statistics.
# human VMAT1 transporter = molecular target: T1, human VMAT1 transporter (Homo sapiens, UniProt P54219); experiment: Uptake in cells expressing VMAT1; format: cell-based; conditions: concentrations up to 10 μM
# T1 construct: expressed in transfected cells
# T1 sequence (P54219 1-525): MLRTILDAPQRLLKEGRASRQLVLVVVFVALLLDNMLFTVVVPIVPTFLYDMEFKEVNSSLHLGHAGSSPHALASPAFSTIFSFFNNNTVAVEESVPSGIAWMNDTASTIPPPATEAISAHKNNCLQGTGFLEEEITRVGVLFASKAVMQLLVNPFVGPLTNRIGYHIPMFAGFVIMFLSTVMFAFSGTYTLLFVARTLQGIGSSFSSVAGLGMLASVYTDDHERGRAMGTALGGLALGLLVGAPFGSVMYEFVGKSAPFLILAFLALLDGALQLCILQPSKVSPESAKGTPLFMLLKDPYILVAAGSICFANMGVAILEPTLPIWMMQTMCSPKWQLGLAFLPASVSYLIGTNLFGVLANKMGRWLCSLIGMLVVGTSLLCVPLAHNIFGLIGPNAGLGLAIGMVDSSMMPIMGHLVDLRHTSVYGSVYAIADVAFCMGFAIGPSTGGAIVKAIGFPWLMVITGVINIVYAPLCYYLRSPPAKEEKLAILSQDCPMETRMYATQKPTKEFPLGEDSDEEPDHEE
# [2] = test system: more than 80 targets (GPCRs, cell-surface monoamine transporters, ion channels including HERG); experiment: Cerep multi-target activity screen; conditions: broad panel screen
compound,measurement,setting,value
"COc1cc2c(cc1OC)[C@H]1C[C@@H](O)[C@H](CC(C)C)CN1CC2 [NBI-98782, (2R, 3R,11bR)-3-isobutyl-9,10-dimethoxy-1,3,4,6,7,11b-hexahydro-2H-pyrido[2,1-a]isoquinolin-2-ol]",half-life,"[1]; 50 mg, read-out: t1/2 Mean (SD) (converted)",18 h
same,inhibition of uptake through VMAT1,"human VMAT1 transporter; listed as R,R,R-DHTBZ",no significant inhibitory activity; also recorded: no significant effect
same,"affinity for more than 80 binding sites, including receptors, monoamine transporters, and ion channels",[2],little to no affinity
"COc1cc2c(cc1OC)C1CC(=O)C(CC(C)C)CN1CC2 (stereo not drawn) [TBZ, Tetrabenazine, reference compound]",inhibition of uptake through VMAT1,human VMAT1 transporter,no significant inhibitory activity; also recorded: no significant effect
"CC(=O)N1CCN(c2ccc(OCC3COC(Cn4ccnc4)(c4ccc(Cl)cc4Cl)O3)cc2)CC1 (stereo not drawn) [Ketoconazole, ketoconazole, reference compound]",concentration at 1 h,"[1]; 200 mg ketoconazole bid, Days 5 to 9 at 1 hour postdose, read-out: Mean plasma concentrations of ketoconazole",1640 to 5180 ng/mL
"COC(=O)[C@H]1[C@H]2C[C@@H]3c4[nH]c5cc(OC)ccc5c4CCN3C[C@H]2C[C@@H](OC(=O)c2cc(OC)c(OC)c(OC)c2)[C@@H]1OC [reserpine, reference compound]",inhibition of uptake through VMAT1,human VMAT1 transporter,substantially inhibited uptake through VMAT1
